According to ChEMBL document CHEMBL3885861, “Open TG-GATES”:

Organism: Rattus norvegicus
Assay: Open TG-GATES - Regimen: Single
Format: toxicity, organism-based, Sprague-Dawley
Set-up: regimen Single, gender Male, age 6 weeks
Conditions: in vivo, po, 6 mg/kg, route gavage, dose level High; for APTT / Bas / Eos / Fbg / Hb / Ht / Lym / MCH / MCHC / MCV / Mono / Neu / PT / Plat / RBC / Ret / WBC: tissue Blood; for KIDNEY_L / KIDNEY_R / KIDNEY_TOTAL: tissue Kidney; for LIVER: tissue Liver; for A/G / ALP / ALT / AST / BUN / CRE / Ca / Cl / DBIL / GLC / IP / K / LDH / Na / PL / RALB / TBIL / TC / TG / TP / gamma-GTP: tissue Plasma

O=NN(CCCl)C(=O)NC1CCCCC1 [LOMUSTINE]
TERMINAL_BW (3 h): 203.9 g | APTT (3 h): 16.2 s | Bas (3 h): 0% | Eos (3 h): 0.4% | Fbg (3 h): 212.6 mg/dL | Hb (3 h): 13.3 g/dL | Ht (3 h): 39.7% | Lym (3 h): 78.2% | MCH (3 h): 21.7 pg | MCHC (3 h): 33.4% | MCV (3 h): 64.8 fL | Mono (3 h): 9.4% | Neu (3 h): 12.2% | PT (3 h): 11.4 s | Plat (3 h): 106.7 x10_4/uL | RBC (3 h): 612.4 x10_4/ul | Ret (3 h): 8.5% | WBC (3 h): 112.2 x10_2/uL | KIDNEY_L (3 h): 0.9 g | KIDNEY_R (3 h): 0.9 g | KIDNEY_TOTAL (3 h): 1.9 g | LIVER (3 h): 10 g | A/G (3 h): 1.8 | ALP (3 h): 970.2 IU/L | ALT (3 h): 36.6 IU/L | AST (3 h): 67.6 IU/L | BUN (3 h): 13.8 mg/dL | CRE (3 h): 0.5 mg/dL | Ca (3 h): 11.3 mg/dL | Cl (3 h): 105.4 meq/L | DBIL (3 h): 0.028 mg/dL | GLC (3 h): 189.6 mg/dL | IP (3 h): 10.3 mg/dL | K (3 h): 4.7 meq/L | LDH (3 h): 161 IU/L | Na (3 h): 140.4 meq/L | PL (3 h): 134 mg/dL | RALB (3 h): 3.6 g/dL | TBIL (3 h): 0.3 mg/dL | TC (3 h): 73.8 mg/dL | TG (3 h): 56.2 mg/dL | TP (3 h): 5.6 g/dL | gamma-GTP (3 h): 1.6 IU/L | TERMINAL_BW (6 h): 201.4 g | APTT (6 h): 16.7 s | Bas (6 h): 0% | Eos (6 h): 0.4% | Fbg (6 h): 217.8 mg/dL | Hb (6 h): 13.1 g/dL | Ht (6 h): 39.4% | Lym (6 h): 78.6% | MCH (6 h): 22.2 pg | MCHC (6 h): 33.3% | MCV (6 h): 66.7 fL | Mono (6 h): 7.6% | Neu (6 h): 13.6% | PT (6 h): 12.1 s | Plat (6 h): 108.1 x10_4/uL | RBC (6 h): 591.6 x10_4/ul | Ret (6 h): 8.9% | WBC (6 h): 107.2 x10_2/uL | KIDNEY_L (6 h): 0.9 g | KIDNEY_R (6 h): 0.9 g | KIDNEY_TOTAL (6 h): 1.9 g | LIVER (6 h): 9.1 g | A/G (6 h): 1.9 | ALP (6 h): 865 IU/L | ALT (6 h): 29.4 IU/L | AST (6 h): 66.2 IU/L | BUN (6 h): 10.4 mg/dL | CRE (6 h): 0.5 mg/dL | Ca (6 h): 11 mg/dL | Cl (6 h): 104.8 meq/L | DBIL (6 h): 0.008 mg/dL | GLC (6 h): 191.8 mg/dL | IP (6 h): 10.5 mg/dL | K (6 h): 4.7 meq/L | LDH (6 h): 152.6 IU/L | Na (6 h): 139.4 meq/L | PL (6 h): 132.2 mg/dL | RALB (6 h): 3.6 g/dL | TBIL (6 h): 0.3 mg/dL | TC (6 h): 76 mg/dL | TG (6 h): 36.6 mg/dL | TP (6 h): 5.6 g/dL | gamma-GTP (6 h): 1.8 IU/L | TERMINAL_BW (9 h): 203.2 g | APTT (9 h): 16.7 s | Bas (9 h): 0% | Eos (9 h): 0.4% | Fbg (9 h): 224.6 mg/dL | Hb (9 h): 13.2 g/dL | Ht (9 h): 40.1% | Lym (9 h): 79.2% | MCH (9 h): 21.9 pg | MCHC (9 h): 32.9% | MCV (9 h): 66.5 fL | Mono (9 h): 5.8% | Neu (9 h): 15% | PT (9 h): 12.2 s | Plat (9 h): 104.4 x10_4/uL | RBC (9 h): 603 x10_4/ul | Ret (9 h): 9.2% | WBC (9 h): 97 x10_2/uL | KIDNEY_L (9 h): 1 g | KIDNEY_R (9 h): 1 g | KIDNEY_TOTAL (9 h): 1.9 g | LIVER (9 h): 8.7 g | A/G (9 h): 2.2 | ALP (9 h): 889.4 IU/L | ALT (9 h): 31.4 IU/L | AST (9 h): 67 IU/L | BUN (9 h): 13 mg/dL | CRE (9 h): 0.5 mg/dL | Ca (9 h): 10.9 mg/dL | Cl (9 h): 106.4 meq/L | DBIL (9 h): 0.028 mg/dL | GLC (9 h): 190.8 mg/dL | IP (9 h): 11.3 mg/dL | K (9 h): 5 meq/L | LDH (9 h): 139.4 IU/L | Na (9 h): 140 meq/L | PL (9 h): 139.4 mg/dL | RALB (9 h): 3.9 g/dL | TBIL (9 h): 0.3 mg/dL | TC (9 h): 78.2 mg/dL | TG (9 h): 39.8 mg/dL | TP (9 h): 5.7 g/dL | gamma-GTP (9 h): 1.4 IU/L | TERMINAL_BW (24 h): 212 g | APTT (24 h): 15.7 s | Bas (24 h): 0% | Eos (24 h): 0.4% | Fbg (24 h): 214.2 mg/dL | Hb (24 h): 13.1 g/dL | Ht (24 h): 39.2% | Lym (24 h): 84.4% | MCH (24 h): 21.5 pg | MCHC (24 h): 33.2% | MCV (24 h): 64.7 fL | Mono (24 h): 7% | Neu (24 h): 7.8% | PT (24 h): 12.3 s | Plat (24 h): 107.2 x10_4/uL | RBC (24 h): 606.6 x10_4/ul | Ret (24 h): 8.4% | WBC (24 h): 121.5 x10_2/uL | KIDNEY_L (24 h): 1 g | KIDNEY_R (24 h): 1 g | KIDNEY_TOTAL (24 h): 2 g | LIVER (24 h): 10.5 g | A/G (24 h): 2 | ALP (24 h): 873 IU/L | ALT (24 h): 35.2 IU/L | AST (24 h): 66.6 IU/L | BUN (24 h): 17.4 mg/dL | CRE (24 h): 0.5 mg/dL | Ca (24 h): 11.2 mg/dL | Cl (24 h): 105.2 meq/L | DBIL (24 h): 0.014 mg/dL | GLC (24 h): 180.4 mg/dL | IP (24 h): 8.1 mg/dL | K (24 h): 4.7 meq/L | LDH (24 h): 106.2 IU/L | Na (24 h): 137.8 meq/L | PL (24 h): 144.6 mg/dL | RALB (24 h): 3.9 g/dL | TBIL (24 h): 0.3 mg/dL | TC (24 h): 78.8 mg/dL | TG (24 h): 71.4 mg/dL | TP (24 h): 5.8 g/dL | gamma-GTP (24 h): 1.4 IU/L
